Experimental data taken from patent publication US4882314A, “A composition and method of treating selected malignant conditions” (priority 1987, dated 1989).

Experiments:
[1] = toxicity / side effects on continuous administration; type: in vivo
primary liver tumor = experiment: Experiment 5: clinical treatment of primary liver tumor; type: in vivo, human; conditions: 200 mg/day/man intravenous infusion
Method: 4,6-O-benzylidene-D-glucopyranose was continuously administered at a dosage of 200 mg/day/man by intravenous infusion.

stomach cancer = experiment: Experiment 6: clinical treatment of stomach cancer; type: in vivo, human; conditions: 200 mg/day/man intravenous infusion
Method: Patient: Stomach cancer of the terminal stage, the stomach extracted but many metastasized lesion in abdominal cavity, peritonitis cartinimatosa observed. […] The preparation for infusion was prepared according to Example 1. […] However, the patient died about 3 months after the start of administration.

mice = experiment: acute toxicity, oral administration or subcutaneous injection in mice; type: in vivo; conditions: subcutaneous injection or oral administration in mice
Method: (§1) The LD50 (mg/kg) value of the compound which is the active ingredient of the present invention, for example, in case of oral administration in mice is about 3000 mg/kg.

[2] = as above; type: in vivo; conditions: mouse, in vivo; oral administration in mice
Method: as §1

[3] = system: peritonitis cartinimatosa; experiment: Experiment 4: clinical treatment of peritonitis carcinomatosa; type: in vivo, human; conditions: 200 mg/day/man intravenous infusion
Method: Administration of 4,6-O-benzylidene-D-glucopyranose at a dosage of 200 mg/day/man by intravenous infusion was started for the treatment of the patient.

W2K.11 cells = experiment: SV40 test: inhibition of proliferation of SV40-transformed malignant cells; type: cell-based, C3H mice; conditions: Mus musculus, read-out: proliferation inhibition ratio
Method: The SV40 (Simian Virus 40) method was adopted for determination of the carinostatic activity. According to this method, normal kidney cells of mice are transformed to malignant cells by the oncogenic virus SV40, the malignant cells are cultured, the test compound is added to the culture medium, the ratio of inhibition of proliferation of the cells is calculated and the carcinostatic activity is determined based on the calculated value. This method has recently been widely used because accurate results can be obtained [see proceedings of the Society for Experimental Biology and Medicine, 114, pages 721-727 (1963)].
The W2K.11 cells obtained by a malignant transformation of normal kidney cells of C3H mice by the oncogenic virus SV40 were used as cells for the test, and they were cultured according to the following method.
(1) Preparation of Culture Medium:
9.4 g of Eagle MEM Medium (manufactured by Nissui Seiyaku K.K.) was dissolved in 900 ml of distilled water and the solution was sterilized at 120° C., under pressure for 15 minutes. After cooling the sterilized solution, 100 ml of calf serum and 3 to 5 ml of a 10% aqueous solution of sodium hydrogencarbonate sterilized separately at 115° C. under pressure for 15 minutes were added to the solution to adjust the pH to 7.1 to 7.2. Just before the resulting culture medium was used, 10 ml of a L-glutamine solution (2.92 g/100 ml) filtered through A millipore filter was added thereto.
(2) Preparation of Test Cells:
The frozen test cells preserved in a deep freezer (-80° C.) with dimethyl sulfoxide added to the above culture medium to a final concentration of 10% were […] at room temperature and subjected to centrifugal separation under 670×g for 5 minutes. The supernatant was discarded and the precipitated cells were suspended in 50 ml of the culture medium. Then, the culture medium was transferred to a Roux flask and culturing was conducted at 37° C. The cells began to grow while adhering to the bottom of the flask, and sufficient growth was obtained in 3 to 4 days. […]

[4] = system: colon carcinoma, tongue cancer, peritonitis carcinomatosa, liver cancer and stomach cancer; experiment: clinical experiments, summary statement; type: in vivo, human; conditions: intravenous, about 20 to about 200 mg/day/man
tongue cancer = experiment: Experiment 3: clinical treatment of tongue cancer; type: in vivo, human
colon carcinoma = experiment: Experiment 2: clinical treatment of colon carcinoma with metastatic cancer in the liver; type: in vivo, human
Method: Person, colon carcinoma with metastatic cancer of 13 cm×10 cm×8 cm in the liver, abdominal dropsy observed.
The patient was subjected to abdominal surgery on June 4, 1979 but extraction of the cancer was impossible and the incised abdoment was immediately sutured.
Administration of 4,6-O-benzylidene-D-glucopyranose at a dosage of 20 mg/day/man (in the form of a physiological saline solution having an active ingredient concentration of 4 mg/ml) by intraperitoneal injection was stated on Aug. 25, 1979. The preparation for injection was prepared according to Example 1. In about one month, the abdominal dropsy disappeared, appetite improved and the overall body condition improved.
A C.T. scan of the liver of the patient before the start of the intraperitoneal injection, that was taken on Aug. 25, 1979, is shown in FIG. 1-A (the metastic lesion (A) appears on the left-side of the tomogram), and a C.T. scan of the same region taken on Dec.

[5] = stability and solubility, general statement; type: physicochemical
[6] = 200 mg/day/man intravenous infusion, after 10 days
[7] = 20 mg/day/man intraperitoneal injection, about 3 months
[8] = 20 mg/day/man intraperitoneal injection, about one month

OC1O[C@@H]2COC(c3ccccc3)O[C@H]2[C@H](O)[C@H]1O (stereo partly drawn) [4,6-O-benzylidene-D-glucopyranose]
toxicity ([1]; continuous administration at the above-mentioned dosage): no toxicity is observed
toxicity, general statement ([1]; in vivo): lowly toxic
excretion from a living body ([1]; when administered): readily excreted from a living body
side effects ([1]; when administered): no side effects are caused
abdominal dropsy (primary liver tumor; about one month): reduction in the abdominal dropsy
liver tumor (primary liver tumor; about one month): prominent contraction of the liver tumor
patient outcome (primary liver tumor; terminal stage): died after about four months of treatment
abdominal dropsy (stomach cancer; one month): disappeared
subjective symptoms (stomach cancer; one month): remarkable improvement
time to death after start of administration (stomach cancer; terminal stage): about 3 months
acute toxicity compared with other carcinostatic agents (mice): much lower than that of other carinostatic agents
LD50 [2]: ~3000 mg/kg
patient outcome [3]: died of paritonitis periforative about one month after the start of treatment
abdominal dropsy ([3]; one week): disappeared
cancer metastasized to the skin ([3]; one week): contraction of the cancer metastasized to the skin
condition of the disease ([3]; one week): subjective and objective improvements
inhibition at 125 µg/mL (W2K.11 cells; 72 h, 125 mcg/ml): 23%
inhibition at 250 µg/mL (W2K.11 cells; 72 h, 250 mcg/ml): 37%
inhibition at 500 µg/mL (W2K.11 cells; 500 mcg/ml, 72 hours of treatment): 72%
clinical effect [4]: prominent effect
histopathology of the granular substance released from the submaxillar tumor (tongue cancer; 200 mg/day/man intravenous infusion): composed of histopathologically keratinized squamous cells
malignant lesion of the tongue (photographs FIGS. 2-A, 3-A vs 2-B, 3-B) (tongue cancer; 200 mg/day/man intravenous infusion, Oct. 15 to Nov. 19, 1979): disappeared
submaxillar tumor (tongue cancer; [6]): softened and began to release a granular substance
tumor on the tongue (tongue cancer; [6]): began to disappear
patient outcome (tongue cancer; 200 mg/day/man intravenous infusion, terminal stage): died after about one month of treatment
CEA unit value (the hepatic function test) (colon carcinoma; [7]): remarkably reduced
metastatic lesion in the liver (colon carcinoma; [7]): almost disappeared
metastatic lesion in the liver (colon carcinoma; 20 mg/day/man intraperitoneal injection, about 4 months, C.T. scan FIG. 1-A vs FIG. 1-B): completely disappeared
abdominal dropsy (colon carcinoma; [8]): disappeared
appetite (colon carcinoma; [8]): improved
metastatic lesion in the liver (C.T. scan) (colon carcinoma; [8]): contraction of the metastatic lesion in the liver had started
overall body condition (colon carcinoma; [8]): improved
patient outcome (colon carcinoma; after treatment, 20 mg/day/man intraperitoneal injection): has lead a normal life since then
stability [5]: very stable
water solubility [5]: water-soluble

N#C[C@H](O[C@@H]1O[C@H](CO[C@@H]2O[C@H](CO)[C@@H](O)[C@H](O)[C@H]2O)[C@@H](O)[C@H](O)[C@H]1O)c1ccccc1 [laetrile, amygdalin, reference compound]
effect of prior treatment (tongue cancer; prior conventional chemotherapy, BCG, radiotherapy and laetrile): no effect could be observed

O=c1[nH]c(=O)n(C2CCCO2)cc1F (stereo not shown) [FT 207, reference compound]
effect of prior treatment (colon carcinoma; FT 207 treatment with cobalt 60 radiotherapy, initiated before the operation): no effect had been observed
